Source: patent publication EP4603105A1, “PHARMACEUTICAL COMPOSITION CONTAINING CYCLIC COMPOUND HAVING SELECTIVE KRAS INHIBITORY EFFECT AGAINST HRAS AND NRAS” (CHUGAI SEIYAKU KABUSHIKI KAISHA, priority 2022, dated 2024)
Read-outs that look alike come from different tables or passages of the source.

Experiments:
[1] = target: GDP-bound KRAS wild-type protein (Homo sapiens, UniProt P01116); assay: Binding to KRAS by surface plasmon resonance (SPR), dissociation constant KD
Method in brief: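 Recombinant RAS proteins bearing a biotinylated Avi tag and loaded with GDP served as the captured ligand, recaptured fresh every cycle. Binding responses were referenced to an uncoated surface and a buffer-only blank cycle. Dissociation constants were obtained by 1:1 model fitting at 30°C.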

[2] = target: GDP-bound NRAS wild-type protein (Homo sapiens, UniProt P01111); assay: Binding to NRAS by surface plasmon resonance (SPR), KD and KD ratio to KRAS
Method in brief: (§1)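 Compound binding is evaluated by SPR single-cycle kinetics, with concentrations added intermittently from low to high for 75 s each. Target surfaces carry GDP-loaded biotinylated Avi-RAS at about 100–300 RU, regenerated after each cycle; temperature 30°C. A 1:1 binding model gives KD.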

[3] = target: HRAS wild-type protein (Homo sapiens, UniProt P01112); assay: Binding to HRAS by surface plasmon resonance (SPR), KD and KD ratio to KRAS
Method in brief: as §1

[4] = tested on: human lung cancer strain NCI-H441; assay: NCI-H441 cell proliferation inhibitory activity (CellTiter-Glo, 4 days); assay type: cell-based; conditions: read-out: NCl-H441 IC50
Method in brief: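 Proliferation was scored by […] measured after the reagent was added to cultures kept at 37°C in 5% carbon dioxide.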

[5] = ratio of KD for GDP-bound NRAS wild-type protein to KD for KRAS
[6] = ratio of KD for HRAS wild-type protein to KD for KRAS

Sequence of GDP-bound KRAS wild-type protein (P01116 1-188 isoform P01116-2): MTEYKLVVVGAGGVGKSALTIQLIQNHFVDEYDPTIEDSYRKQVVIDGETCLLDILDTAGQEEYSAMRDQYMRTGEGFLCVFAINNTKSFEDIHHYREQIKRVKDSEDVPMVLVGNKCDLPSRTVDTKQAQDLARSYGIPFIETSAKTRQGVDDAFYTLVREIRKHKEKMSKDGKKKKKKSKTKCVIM
Sequence of HRAS wild-type protein (P01112 whole entry): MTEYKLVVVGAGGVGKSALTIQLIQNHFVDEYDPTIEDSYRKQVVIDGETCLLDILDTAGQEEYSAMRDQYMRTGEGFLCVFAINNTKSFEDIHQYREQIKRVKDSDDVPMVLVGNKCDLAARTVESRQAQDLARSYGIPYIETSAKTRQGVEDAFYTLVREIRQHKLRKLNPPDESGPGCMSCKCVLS
Sequence of GDP-bound NRAS wild-type protein (P01111 whole entry): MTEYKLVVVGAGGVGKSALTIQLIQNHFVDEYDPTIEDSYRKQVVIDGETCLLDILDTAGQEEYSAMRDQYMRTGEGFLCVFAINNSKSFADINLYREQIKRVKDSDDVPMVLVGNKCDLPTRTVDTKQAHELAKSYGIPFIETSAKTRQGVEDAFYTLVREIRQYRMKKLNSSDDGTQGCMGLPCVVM

Row | Compound | Kd ([1]; Single Cycle Kinetics) [nM] | IC50 ([4]; NCI-H441 cells, 4 days) [nM] | Kd ([1]; 1:1 binding model) [nM] | Kd ([1]; Single Cycle Kinetics, 1:1 binding model) [nM] | IC50 ([4]; 50% proliferation inhibitory concentration, four days) [nM] | NRAS /KRAS [2, 5] | HRAS /KRAS [3, 6] | NRAS /KRAS ([2]; ratio of KD with respect to GDP-bound NRAS wild-type protein to KD with respect to KRAS) | HRAS /KRAS ([3]; ratio of KD with respect to HRAS wild-type protein to KD with respect to KRAS)
1 | CCC[C@H]1C(=O)N[C@@H]([C@@H](C)CC)C(=O)N(C2CC2)CC(=O)N(C)[C@H]2C/C=C\CCN(C2=O)[C@@H](Cc2ccc(C)cc2)C(=O)N(C)CC(=O)N[C@@H](CCc2cc(F)c(C(F)(F)F)c(F)c2)C(=O)N2C[C@H](OC(C)C)C[C@H]2C(=O)NC2(CC(C)(C)C2)C(=O)N(C)[C@@H](C2CCCC2)C(=O)N(C)[C@H](C(=O)N(C)C)CC(=O)N1C [PP2570] |  | 8.9 | 0.39 |  |  | A (a compound having 10 or more and less than 20 is denoted as A) | A (a compound having 10 or more and less than 20 is denoted as A) |  | 
2 | CCO[C@@H]1C[C@H]2C(=O)NC3(CC(C)(C)C3)C(=O)N(C)[C@@H](C3CCCC3)C(=O)N(C)[C@H](C(=O)N(C)C)CC(=O)N[C@@H](CC(C)C)C(=O)N[C@@H]([C@@H](C)CC)C(=O)N(C)CC(=O)N(C)[C@H]3C/C=C\CCN(C3=O)[C@@H](Cc3ccc(C(F)(F)F)cc3)C(=O)N(C)CC(=O)N[C@@H](CCc3cc(F)c(C(F)(F)F)c(F)c3)C(=O)N2C1 [PP3455] | 0.11 | 15 |  |  |  | A (a compound having 10 or more and less than 20 is denoted as A) | A (a compound having 10 or more and less than 20 is denoted as A) |  | 
3 | CCO[C@@H]1C[C@H]2C(=O)NC3(CCC3)C(=O)N(C)[C@@H](C3CCCC3)C(=O)N(C)[C@H](C(=O)N(C)C)CC(=O)N(C)[C@@H](COC3CC3)C(=O)N[C@@H]([C@@H](C)CC)C(=O)N(C)CC(=O)N(C)[C@H]3C/C=C\CCN(C3=O)[C@@H](Cc3ccc(C(F)(F)F)cc3)C(=O)N(C)CC(=O)N[C@@H](CCc3cc(F)c(C(F)(F)F)c(F)c3)C(=O)N2C1 [PP1268] |  |  |  | 0.045 | 12.1 |  |  | A (a compound having 10 or more and less than 20 is denoted as A) | A (a compound having 10 or more and less than 20 is denoted as A)

Now from value to compound, other results behind:

Row | Kd ([1]; Single Cycle Kinetics) [nM] | IC50 ([4]; NCI-H441 cells, 4 days) [nM] | Kd ([1]; 1:1 binding model) [nM] | Kd ([1]; Single Cycle Kinetics, 1:1 binding model) [nM] | IC50 ([4]; 50% proliferation inhibitory concentration, four days) [nM] | Compound | NRAS /KRAS [2, 5] | HRAS /KRAS [3, 6] | NRAS /KRAS ([2]; ratio of KD with respect to GDP-bound NRAS wild-type protein to KD with respect to KRAS) | HRAS /KRAS ([3]; ratio of KD with respect to HRAS wild-type protein to KD with respect to KRAS)
4 | 0.2 | 12.8 |  |  |  | CCC[C@H]1C(=O)N[C@@H]([C@@H](C)CC)C(=O)N(C)CC(=O)N(C)[C@H]2C/C=C\CCN(C2=O)[C@@H](Cc2ccc(C(F)(F)F)cc2)C(=O)N(C)CC(=O)N[C@@H](CCc2cc(F)c(C(F)(F)F)c(F)c2)C(=O)N2CC3(CC3)C[C@H]2C(=O)NC2(CCC2)C(=O)N(C)[C@@H]([C@@H](C)CC)C(=O)N(C)[C@H](C(=O)N(C)C)CC(=O)N1C [PP3404] | AA (a compound having 20 or more is denoted as AA) | A (a compound having 10 or more and less than 20 is denoted as A) |  | 
5 | 0.46 | 28.3 |  |  |  | CCC[C@H]1C(=O)N[C@@H](C23CC(C2)C3)C(=O)N(C)CC(=O)N(C)[C@H]2C/C=C\CCN(C2=O)[C@@H](Cc2ccc(C(F)(F)F)cc2)C(=O)N(C)CC(=O)N[C@@H](CCc2ccc(C(F)(F)F)c(OC)c2)C(=O)N2C[C@H](OCC)C[C@H]2C(=O)N(C)C2(CCC2)C(=O)N(C)[C@@H](C2CCCC2)C(=O)N(C)[C@H](C(=O)N(C)C)CC(=O)N1C [PP3341] | A (a compound having 10 or more and less than 20 is denoted as A) | A (a compound having 10 or more and less than 20 is denoted as A) |  | 
6 | 0.099 | 3.4 |  |  |  | CCC[C@H]1C(=O)N[C@@H]([C@@H](C)CC)C(=O)N(C)CC(=O)N(C)[C@H]2C/C=C\CCN(C2=O)[C@@H](Cc2ccc(C)cc2)C(=O)N(C)CC(=O)N[C@@H](CCc2ccc(C(F)(F)F)c(OC)c2)C(=O)N2CC3(CC3)C[C@H]2C(=O)N(C)C2(CCC2)C(=O)N(C)[C@@H]([C@@H](C)CC)C(=O)N(C)[C@H](C(=O)N(C)C)CC(=O)N1C [PP3294] | A (a compound having 10 or more and less than 20 is denoted as A) | A (a compound having 10 or more and less than 20 is denoted as A) |  | 
